Measured values taken from patent US6528251B2, “Method of managing the chemotherapy of patients who are HIV positive based on the phenotypic drug sensitivity of human HIV strains” (Virco N.V., priority 1996, dated 2003).
Like-named read-outs stand apart in the source and are kept apart here.

Legend:
Assay type in all cases: cell-based, HIV-1
[1] = tested on: Recombinant wild type HIV strain recIIIB; test: Antiviral MT4/MTT assay with reference virus recIIIB; details: read-out: Anti-HIV-1 activity IC50 (μM) recIIIB ref (2)
Protocol: (§1) After titration of the new viruses, the stocks were used for antiviral experiments in the presence of serial dilutions of different HIV inhibitors. Titres of the harvested supematants were determined by limited serial dilution titration of virus in MT4 cells.
(§2) Viruses with a useful titre were used in antiviral experiments. For this purpose, 96-well microtitre plates were filled with 100μl of complete culture medium. Subsequently, stock solutions of compounds were added in 25 μl volumes to series of duplicate wells. HIV- and mock-infected cell samples were included for each drug (or drug combination). Exponentially growing MT4 cells were then transferred to the microtitre plates at a density of 150,000 cells/ml. The cell cultures were then incubated at 37° C. in a humidified atmosphere of 5% CO2. Five days after infection, the viability of the mock- and HIV-infected cells was examined spectrophotometrically by the M1T method (Pauwels, R. et al. J. Virol. Meth. (1988), 20: 309-321) as described in Section 6 below.
(§3) To each well of the microtiter plates, 20 μl of a solution of MTT (7.5 mg/ml in PBS) was added. The plates were further incubated at 37° C. for 1 h. Then, 150 μl of medium was removed without disturbing the MT4 cell clusters containing the formazan crystals. Solubilization of the formazan crystals was achieved by adding 100 μl 5% Triton X-100 in acidified isopropanol (5 ml concentrated HCl per liter solvent). Complete dissolution of the formazan crystals was obtained after the plates had been placed on a plate shaker for 10 min. Finally the absorbances were read at two wavelengths (540 and 690 nm). From these optical density (OD) data, 50% inhibitory (IC50) and 50% cytotoxic (CC50) concentrations were derived.

[2] = tested on: recombinant virus from patient viral RNA (Example 10, drug-naive patient); test: Recombinant virus assay (MT4/MTT), drug-naive patient of Example 10; details: for IC50: Human immunodeficiency virus 1, Table 6, Example 10 patient virus
Protocol: (§4) RNA was isolated from 100 μl of plasma according to the method described by Boom, R. et al. (1990, supra), and was reverse transcribed with the GeneAmp reverse transcriptase kit (Perkin Elmer) as described by the manufacturer and using an HIV-1 specific downstream primer (OUT3: 5′-CATTGCTCTCCAATTACTGTGATATTTCTCATC-3′; SEQ ID NO: 1). PCR on reverse transcribed RNA was performed with inner and outer primers as described by Kellam, P. and Larder, B. A. (1994, supra). After chloroform extraction and centrifugation on Centricon 100 columns or centrifugation on anion-exchange spin columns (Quiagen), the isolated PCR product was ready for use in the transfection reactions.
(§5) MT4 cells were subcultured at a density of 250,000 cells/ml before transfection (exponential growth phase). Cells were pelleted and resuspended in phosphate buffered saline (PBS) at a concentration of […]. A 0.8 ml portion (2.5 10E6 cells/ml) was used for each transfection. Transfection was performed with the Bio-Rad Gene pulser making use of 0.4 cm electrode cuvettes. Cells were electroporated in the presence of […] of linearised pHIVΔRT plasmid and approximately 5 μg of RT PCR product at 250SF and 300 V, followed by a 30-min incubation at room temperature. Subsequently, 10 ml of fresh culture medium was added to the cell suspension and incubation was performed at 37° C. in a humidified atmosphere of 5% CO2.
(§6) During 7 to 10 days following the transfection, cells were monitored for the appearance of cytopathogenic effect (CPE). In the absence thereof, cells were subcultured in different flasks. Subsequently, culture supernatants of transfected cells were used to create a stock of recombinant virus and stored in 1.5 ml aliquots at −70° C.
as §1, §2, §3
(§7) A drug-naive HIV-infected patient donated plasma whose susceptibility to a number of RT inhibitors and protease inhibitors was determined according to the protocol set out in Example 1. Recombinant wild type HIV strain recIIIB was used as a reference HIV virus.

[3] = tested on: recombinant virus from patient viral RNA (Example 11); test: Recombinant virus assay (MT4/MTT), patient of Example 11 (therapy history RT and protease inhibitors); details: for IC50: Human immunodeficiency virus 1, Table 7, Example 11 patient virus
Protocol: as §4, §5, §6, §1, §2, §3
as §7, with “An HIV infected” for “A drug-naive HIV-infected”, “patient with a therapy history including RT and protease inhibitors” for “patient”, “recIIIb” for “recIIIB”

[4] = tested on: recombinant virus from patient viral RNA (Example 12); test: Recombinant virus assay (MT4/MTT), patient of Example 12 (therapy history RT and protease inhibitors); details: for IC50: Human immunodeficiency virus 1, Table 8, Example 12 patient virus
Protocol: as §4, §5, §6, §1, §2, §3
An HIV infected patient with a therapy history including RT and protease inhibitors donated plasma whose susceptibility to a number of RT inhibitors and protease inhibitors was determined according to the protocol set out in Example 1.

[5] = MT4 cells, read-out: Anti-HIV-1 activity IC50 (μM) Exp. 1
[6] = MT4 cells, read-out: Anti-HIV-1 activity IC50 (μM) Exp. 2
[7] = mean, read-out: Anti-HIV-1 activity IC50 (μM) Mean (1)

CC(C)(C)NC(=O)[C@@H]1C[C@@H]2CCCC[C@@H]2CN1C[C@@H](O)[C@H](Cc1ccccc1)NC(=O)[C@H](CC(N)=O)NC(=O)c1ccc2ccccc2n1 [saquinavir]
IC50 ([1]; Human immunodeficiency virus 1, Table 6, reference run of Example 10): 0.006 µM
IC50 ([1]; Human immunodeficiency virus 1, Table 7, reference run of Example 11): 0.012 µM
IC50 ([1]; Human immunodeficiency virus 1, Table 8, reference run of Example 12): 0.006 µM
IC50 [2, 5]: 0.003 µM
IC50 [2, 6]: 0.003 µM
IC50 [2, 7]: 0.003 µM
ratio (1)/(2) ([2]; Table 6, patient mean IC50 / recIIIB IC50, Example 10): 0.4
IC50 [3, 5]: 0.014 µM
IC50 [3, 6]: 0.015 µM
IC50 [3, 7]: 0.014 µM
ratio (1)/(2) ([3]; Table 7, patient mean IC50 / recIIIB IC50, Example 11): 1
susceptibility of the patient's HIV strain (in words) ([4]; Example 12 patient, conclusion from Table 8): decreased susceptibility
IC50 [4, 5]: 0.35 µM
IC50 [4, 6]: 0.352 µM
IC50 [4, 7]: 0.351 µM
ratio (1)/(2) ([4]; Table 8, patient mean IC50 / recIIIB IC50, Example 12): 56
